Results as given in US6127342A, “Method for preventing or treating a lung disease caused by active oxygen and free radical injury” (Teijin Limited, priority 1991, dated 2000).

Tests used:
[1] = tested on: coronary ischemia-reperfusion model using dogs; experiment: Mortality during coronary ischemia-reperfusion in dogs; assay type: in vivo; conditions: dog; for Mortality rate (number of dogs that died / number of dogs in experiment), 1 hour of reperfusion: 1 hour of reperfusion after 10 mg/kg i.v. just before reperfusion; for Mortality rate (number of dogs that died / number of dogs in experiment), 2 hours of ischemia: before the drug was given (10 mg/kg i.v. just before reperfusion)
Procedure: After anesthetizing 52 adult mongrel dogs of either sex weighing ca. 10 kg by intraperitoneal administration of 50 mg/kg of sodium pentobarbital, breathing tubes were immediately intubated endotracheally and artificial ventilation was continued using a Harvard ventilator. Electrocardiogram electrodes were attached, and monitoring and recording were continued throughout the experiment. Following insertion of cannulas in the right femoral vein and right femoral artery, the cannulas were used for continuous intravenous drip of physiological saline to replenish water or administration of the test preparation, and monitoring of arterial blood pressure, respectively. After performing left thoracotomy in the fourth or fifth intercostal space, the pericardium was torn to expose the heart. Ischemia was induced by ligating the left anterior descending coronary artery immediately distal to the first diagonal branch, while reperfusion was performed by subsequently removing that ligation.
The animals were divided into four groups. Group 1 (n=9) was subjected to ischemia for 2 hours, group 2 (n=17) was subjected to ischemia for 2 hours followed by reperfusion for 1 hour, group 3 (n=10) was subjected to ischemia for 2 hours followed by reperfusion for 1 hour plus intravenous injection of 10 mg/kg of γ-GCE just before reperfusion, and group 4 (n=16) was subjected to 2 hours of ischemia followed by 1 hour of reperfusion plus intravenous injection of 10 mg/kg of reduced glutathione (GSH, control drug) just before reperfusion.

[2] = tested on: ovalbumin inhalation model using guinea pigs; experiment: Airway responsiveness (Ach PC200) in ovalbumin inhalation model; assay type: in vivo; conditions: guinea pig; 2% OA aerosol 10 days; 10 mg/kg i.p. twice daily for 10 days; FIG. 3
Procedure: (§1) Male Hartley guinea pigs weighing 350-400 g were divided into three groups, i.e., the control group, the ovalbumin (OA) group and the OA+γ-GCE group. The control group was allowed to inhale an aerosol of physiological saline for 7-8 minutes per day for 10 consecutive days. The OA group was allowed to inhale an aerosol of 2% OA in the same manner. The OA+γ-GCE group was allowed to similarly inhale an aerosol of 2% OA together with intraperitoneal administration of 10 mg/kg of γ-GCE twice daily for 10 days.
Evaluation of efficacy was performed by measuring (1) the minimum provocative concentration of acetylcholine (Ach) at which the respiratory resistance reached more than 200% of baseline (Ach Provocative Concentration 200) both before and after inhalation for 10 days, together with measuring (2) the number of pulmonary membrane β-receptors and adenylate cyclase activity, and (3) xanthine oxidase activities in lung tissue, bronchoalveolar lavage fluid and serum, following 10 days of inhalation.
Each of the measurements were made using 6 animals in each group, and the results were expressed as mean ± standard deviation. Evaluation of significance was performed using Dunnett's test. Cases of P being less than 0.05 were considered to be statistically significant.

[3] = tested on: pulmonary membrane β-receptors; experiment: Number of pulmonary membrane β-receptors in ovalbumin inhalation model; assay type: in vivo; conditions: guinea pig; 2% OA aerosol 10 days; 10 mg/kg i.p. twice daily for 10 days; FIG. 4
Procedure: as §1, with “10 days. […] Each of the measurements were made using 6 animals in each group, and the results were expressed as mean ± standard deviation. Evaluation of significance was performed using Dunnett's test. Cases of P being less than 0.05 were considered to be statistically significant.” for “10 days.”

[4] = tested on: pulmonary membrane adenylate cyclase; experiment: Pulmonary membrane adenylate cyclase activity in ovalbumin inhalation model; assay type: in vivo; conditions: guinea pig; 2% OA aerosol 10 days; 10 mg/kg i.p. twice daily for 10 days; isoproterenol-stimulated and baseline; FIG. 5
Procedure: as §1, with “10 days. […] Each of the measurements were made using 6 animals in each group, and the results were expressed as mean ± standard deviation. Evaluation of significance was performed using Dunnett's test. Cases of P being less than 0.05 were considered to be statistically significant.” for “10 days.”

xanthine oxidase = experiment: Xanthine oxidase activities in lung tissue, bronchoalveolar lavage fluid and serum; assay type: in vivo; conditions: guinea pig; OA inhalation 10 days + 10 mg/kg i.p. twice daily
Procedure: as §1, with “10 days. […] Each of the measurements were made using 6 animals in each group, and the results were expressed as mean ± standard deviation. Evaluation of significance was performed using Dunnett's test. Cases of P being less than 0.05 were considered to be statistically significant.” for “10 days.”

[5] = in vivo; cited from earlier work
[6] = 10 mg/kg i.v. just before reperfusion

Compound	mortality rate during reperfusion [1, 6]	Mortality rate (number of dogs that died / number of dogs in experiment), 1 hour of reperfusion [1]	Mortality rate (number of dogs that died / number of dogs in experiment), 2 hours of ischemia [1]	effect on increase in airway responsiveness (decrease in log[Ach PC200]) after OA inhalation [2]	effect on the reduction in pulmonary membrane β-receptors after OA inhalation [3]	effect on the reduction in pulmonary membrane adenylate cyclase activity after OA inhalation [4]	Xanthine oxidase activity, bronchoalveolar lavage fluid (xanthine oxidase)	Xanthine oxidase activity, lung tissue (xanthine oxidase)	Xanthine oxidase activity, serum (xanthine oxidase)	xanthine oxidase values compared with the OA group, lung tissue and bronchoalveolar lavage fluid (xanthine oxidase)	animals died due to ventricular fibrillation during reperfusion [1, 6]	half-life in the blood when administered [5]
CCOC(=O)[C@H](CS)NC(=O)CC[C@H](N)C(=O)O [γ-GCE, γ-L-glutamyl-L-cysteine ethyl ester]	0	0/8	2/10	inhibited (1) the remarkable increase in airway responsiveness	inhibited	inhibited	9.43 ± 0.95 mU/ml	33.3 ± 4.02 mU/g tissue	10.0 ± 1.77 mU/ml	significantly lower than those of the OA group	–	–
N[C@@H](CCC(=O)N[C@@H](CS)C(=O)NCC(=O)O)C(=O)O [GSH, reduced glutathione, reference compound]	–	7/15	1/16	–	–	–	–	–	–	–	ca. 50%	several minutes
